Assay [1] concerns the target Alpha glucosidase (Homo sapiens, UniProt O43451+P10253+P14410+Q2M2H8). The assay is described as follows: Inhibition of alpha-glucosidase (unknown origin) using p-nitro-phenyl-alpha-D-glucopyranoside as substrate preincubated for 5 mins with substrate followed by enzyme addition measure after 15 mins by spectrophotometric method. It is filed as protein assay.
Assay [2] in a line: Antioxidant activity assessed as DPPH radical scavenging activity incubated for 30 mins under dark condition by spectrophotometric analysis. The assay is classed as functional.
Assay [3] in a line: Antioxidant activity assessed as DPPH radical scavenging activity incubated for 30 mins under dark condition. The assay is classed as functional.

Take `COC(=O)[C@]1(Cc2ccc(O)cc2)OC(=O)C(O)=C1c1ccc(O)cc1`: the IC50 (commonly the concentration at which inhibition is half-maximal) was 85.13 µM in assay [1] and 86 µM in assay [2].

For the molecule `COC(=O)[C@]1(Cc2ccc3c(c2)CCC(C)(C)O3)OC(=O)C(O)=C1c1ccc(O)cc1`, the IC50 came out at 47.33 µM in assay [1] and 97 µM in assay [2]. On to `COC(=O)[C@@]1(O)OC(=O)C(Cc2ccc3c(c2)CCC(C)(C)O3)=C1c1ccc(O)cc1`, for which the half-inhibitory concentration (IC50) was 10.3 µM in assay [1] and above 200 µM in assay [2]. Take `CC1(C)CCc2cc(CC3=C(c4ccc(O)cc4)[C@@](O)(C(=O)O)OC3=O)ccc2O1`: the IC50 was 7.63 µM in assay [1] and above 200 µM in assay [2]. Regarding `CC1(C)CCc2cc(CC3OC(=O)C(O)=C3c3ccc(O)cc3)ccc2O1` (configuration not stated), the 50% inhibitory concentration (IC50) is 11.65 µM in assay [1] and 90 µM in assay [2]. As for `CO[C@@H]1OC(=O)C(Cc2ccc(O)c(CC=C(C)C)c2)=C1c1ccc(O)cc1`, the IC50 in assay [1] is 9.98 µM; in assay [2] it was above 200 µM. Take `COC(=O)[C@]1(Cc2ccc(O)c(CC=C(C)C)c2)OC(=O)C(OC)=C1c1ccc(O)cc1`: the IC50 in assay [3] was 125 µM. The same measure, in the same setting: next, `COC(=O)[C@]1(Cc2ccc3c(c2)C[C@H](O)C(C)(C)O3)OC(=O)C(OC)=C1c1ccc(O)cc1`: above 500 µM. With `COC(=O)[C@]1(Cc2ccc3c(c2)C[C@@H](O)C(C)(C)O3)OC(=O)C(O)=C1c1ccc(O)cc1`, the IC50 in assay [1] was 110.27 µM; in assay [2] it was 135 µM.

Turning to `CC1(C)CCc2cc(CC3=C(c4ccc(O)cc4)C(O)OC3=O)ccc2O1` (configuration not stated), the IC50 in assay [1] is 13.36 µM; in assay [2], above 200 µM. The like results for `CO[C@H]1OC(=O)C(Cc2ccc(O)c(CC=C(C)C)c2)=C1c1ccc(O)cc1` were, in that order, 8.65 µM and above 200 µM.

Take `COC(=O)[C@]1(Cc2ccc(O)c(CC=C(C)C)c2)OC(=O)C(O)=C1c1ccc(O)cc1`: the IC50 in assay [1] worked out at 14.18 µM; in assay [2] it was 38 µM. For the molecule `CC(=O)N[C@@H](CS)C(=O)O` [ACETYLCYSTEINE], the IC50 in assay [2] amounted to 85 µM. Consider `O=C1O/C(=C\c2ccc(O)cc2)C(O)=C1c1ccc(O)cc1` [ASPULVINONE E], for which the IC50 in assay [1] was above 400 µM; in assay [2], 106 µM. `COC(=O)[C@]1(Cc2ccc3c(c2)C[C@H](C(C)(C)O)O3)OC(=O)C(O)=C1c1ccc(O)cc1` [BUTYROLACTONE IV]: the IC50 in assay [1] was above 400 µM; in assay [2], 129 µM.

These data come from ChEMBL document CHEMBL4184116, “New butenolide derivatives from the marine sponge-derived fungus Aspergillus terreus” (Bioorg Med Chem Lett, 2018).
